Consider 22 compounds from patent US20240376056A1, “PHENYL ACETAMIDE BASED IL-17A MODULATORS AND USES THEREOF” (DiCE Alpha, Inc., priority 2021, published 2024).

The assay concerns the target T1, IL-17A/A (Homo sapiens, UniProt Q16552).
T1 construct: purchased Genscript Z03228
T1 sequence (Q16552 24-155): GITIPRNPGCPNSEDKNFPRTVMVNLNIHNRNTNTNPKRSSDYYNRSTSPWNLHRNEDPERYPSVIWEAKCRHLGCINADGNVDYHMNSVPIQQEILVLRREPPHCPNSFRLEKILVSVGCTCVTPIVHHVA
The assay is described as follows: HEK-Blue IL-17A/A inhibition assay (SEAP reporter). It is filed as cell-based. As to conditions: HEK-Blue cells (HEK 293 expressing IL-17RA, IL-17RC, Act1); IL-17A/A stimulation; 20 hours; SEAP read at A630; 4-parameter fit. The method, boiled down:
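HEK 293 cells engineered with IL-17RA, IL-17RC and Act1 (NFκB-driven SEAP) given titrated compound (top final 10, 1 or 0.3 uM; 0.1% DMSO) just before IL-17A/A, then incubated 20 h. SEAP in media developed with Quanti-Blue, read at A630; IC50 by 4-parameter nonlinear fit.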
By IC50 is commonly meant the concentration needed to halve the response being measured. With `CCn1nccc1C(=O)N[C@H](C(=O)Nc1ccc([C@H](C)C(=O)N(CCO)CC(F)(F)F)cc1F)C(C1CC1)C1CC1` [Compound 10, N-((S)-1,1-dicyclopropyl-3-((2-fluoro-4-((S)-1-((2-hydroxyethyl)(2,2,2-trifluoroethyl)amino)-1-oxopropan-2-yl)phenyl)amino)-3-oxopropan-2-yl)-1-ethyl-1H-pyrazole-5-carboxamide], the IC50 fell in the range of 100 to 1000 nM. Regarding `CCn1nccc1C(=O)N[C@H](C(=O)Nc1ccc([C@H](C)C(=O)N2CCC[C@H]2C(F)(F)F)cc1F)C(C1CC1)C1CC1` [Compound 11, N-((S)-1,1-dicyclopropyl-3-((2-fluoro-4-((S)-1-oxo-1-((S)-2-(trifluoromethyl)pyrrolidin-1-yl)propan-2-yl)phenyl)amino)-3-oxopropan-2-yl)-1-ethyl-1H-pyrazole-5-carboxamide], the IC50 is below 100 nM.

Consider `CCn1nccc1C(=O)N[C@H](C(=O)Nc1ccc([C@H](C)C(=O)NC(CCO)C(F)(F)F)cc1F)C(C1CC1)C1CC1` (stereo partly drawn) [Compound 12, N-((2S)-1,1-dicyclopropyl-3-((2-fluoro-4-((2S)-1-oxo-1-((1,1,1-trifluoro-4-hydroxybutan-2-yl)amino)propan-2-yl)phenyl)amino)-3-oxopropan-2-yl)-1-ethyl-1H-pyrazole-5-carboxanude], for which the IC50 was in the range of 100 to 1000 nM. For `CCn1nccc1C(=O)N[C@H](C(=O)Nc1ccc([C@H](C)C(=O)N2CC(F)(F)C2)cc1F)C(C1CC1)C1CC1` [Compound 15, N-((S)-1,1-dicyclopropyl-3-((4-((S)-1-(3,3-difluoroazetidin-1-yl)-1-oxopropan-2-yl)-2-fluorophenyl)amino)-3-oxopropan-2-yl)-1-ethyl-1H-pyrazole-5-carboxamide], the half-inhibitory concentration (IC50) fell in the range of 100 to 1000 nM. Then `CC(C)n1nccc1C(=O)N[C@H](C(=O)Nc1ccc([C@H](C)C(=O)NC2CC2)cc1F)C(C1CC1)C1CC1` [Compound 16, N-((S)-1,1-dicyclopropyl-3-((4-((S)-1-(cyclopropylamino)-1-oxopropan-2-yl)-2-fluorophenyl)amino)-3-oxopropan-2-yl)-1-isopropyl-1H-pyrazole-5-carboxamide], with above 1000 nM. Regarding `CC(C)n1nccc1C(=O)N[C@H](C(=O)Nc1ccc([C@H](C)C(=O)NCC(F)F)cc1F)C(C1CC1)C1CC1` [Compound 17, N-((S)-1,1-dicyclopropyl-3-((4-((S)-1-((2,2-difluoroethyl)amino)-1-oxopropan-2-yl)-2-fluorophenyl)amino)-3-oxopropan-2-yl)-1-isopropyl-1H-pyrazole-5-carboxanide], the IC50 is 100 to 1000 nM.

`CNCCN(CC(F)(F)F)C(=O)[C@@H](C)c1ccc(NC(=O)[C@@H](NC(=O)c2ccnn2C(C)C)C(C2CC2)C2CC2)c(F)c1` [Compound 22, N-((S)-1,1-dicyclopropyl-3-((2-fluoro-4-((S)-1-((2-(methylamino)ethyl)(2,2,2-trifluoroethyl)amino)-1-oxopropan-2-yl)phenyl)amino)-3-oxopropan-2-yl)-1-isopropyl-1H-pyrazole-5-carboxamide]: the IC50 lay within 100 to 1000 nM. As to `[2H]C([2H])([2H])N(CC(F)(F)F)C(=O)[C@@H](C)c1ccc(NC(=O)[C@@H](NC(=O)c2ccnn2C(C)C)C(C2CC2)C2CC2)c(F)c1` [Compound 23, N-((S)-1,1-dicyclopropyl-3-((2-fluoro-4-((S)-1-((methyl-d3)(2,2,2-trifluoroethyl)amino)-1-oxopropan-2-yl)phenyl)amino)-3-oxopropan-2-yl)-1-isopropyl-1H-pyrazole-5-carboxamide], the IC50 is 100 to 1000 nM.

For `CC(C)n1nccc1C(=O)N[C@H](C(=O)Nc1ccc([C@H](C)C(=O)N2CCN(CC(F)(F)F)CC2)cc1F)C(C1CC1)C1CC1` [Compound 24, N-((S)-1.1-dicyclopropyl-3-((2-fluoro-4-((S)-1-oxo-1-(4-(2,2,2-trifluoroethyl)piperazin-1-yl)propan-2-yl)phenyl)amino)-3-oxopropan-2-yl)-1-isopropyl-1H-pyrazole-5-carboxamide], the IC50 was 100 to 1000 nM. For the compound `CC(C)n1nccc1C(=O)N[C@H](C(=O)Nc1ccc([C@H](C)C(=O)NC2CC2C(F)F)cc1F)C(C1CC1)C1CC1` (stereo partly drawn) [Compound 25, N-((2S)-1.1-dicyclopropyl-3-((4-((2S)-1-((2-(difluoromethyl)cyclopropyl)amino)-1-oxopropan-2-yl)-2-fluorophenyl)amino)-3-oxopropan-2-yl)-1-isopropyl-1H-pyrazole-5-carboxamide], the IC50 was 100 to 1000 nM. Consider `CC(C)n1nccc1C(=O)N[C@H](C(=O)Nc1ccc([C@H](C)C(=O)NC(C2CC2)C(F)(F)F)cc1F)C(C1CC1)C1CC1` (stereo partly drawn) [Compound 26, N-((2S)-1,1-dicyclopropyl-3-((4-((2S)-1-((1-cyclopropyl-2,2,2-trifluoroethyl)amino)-1-oxopropan-2-yl)-2-fluorophenyl)amino)-3-oxopropan-2-yl)-1-isopropyl-1H-pyrazole-5-carboxamide], for which the IC50 was in the range of 100 to 1000 nM. The value for `CC(C)n1nccc1C(=O)N[C@H](C(=O)Nc1ccc([C@H](C)C(=O)NC(Cc2ccccn2)C(F)(F)F)cc1F)C(C1CC1)C1CC1` (stereo partly drawn) [Compound 27, N-((2S)-1,1-dicyclopropyl-3-((2-fluoro-4-((2S)-1-oxo-1-((1,1,1-trifluoro-3-(pyridin-2-yl)propan-2-yl)amino)propan-2-yl)phenyl)amino)-3-oxopropan-2-yl)-1-isopropyl-1H-pyrazole-5-carboxamide] was above 1000 nM; that for `CC(C)n1nccc1C(=O)N[C@H](C(=O)Nc1ccc([C@H](C)C(=O)N2CCC(F)(F)C2)cc1F)C(C1CC1)C1CC1` [Compound 30] was 100 to 1000 nM; that for `CC(C)n1nccc1C(=O)N[C@H](C(=O)Nc1ccc([C@H](C)C(=O)N2C[C@@H](O)[C@@H](F)C2)cc1F)C(C1CC1)C1CC1` [Compound 31, N-((S)-1.1-dicyclopropyl-3-((2-fluoro-4-((S)-1-((3S,4R)-3-fluoro-4-hydroxypyrrolidin-1-yl)-1-oxopropan-2-yl)phenyl)amino)-3-oxopropan-2-yl)-1-isopropyl-1H-pyrazole-5-carboxamide] was above 1000 nM.

With `CC(C)n1nccc1C(=O)N[C@H](C(=O)Nc1ccc([C@H](C)C(=O)NCC(N(C)C)C(F)(F)F)cc1F)C(C1CC1)C1CC1` (stereo partly drawn) [Compound 32, N-((2S)-1.1-dicyclopropyl-3-((4-((2S)-1-((2-(dimethylamino)-3,3,3-trifluoropropyl)amino)-1-oxopropan-2-yl)-2-fluorophenyl)amino)-3-oxopropan-2-yl)-1-isopropyl-1H-pyrazole-5-carboxamide], the IC50 is above 1000 nM. The value for `CC(C)n1nccc1C(=O)N[C@H](C(=O)Nc1ccc([C@H](C)C(=O)N2CC(F)(CO)C2)cc1F)C(C1CC1)C1CC1` [Compound 33, N-((S)-1,1-dicyclopropyl-3-((2-fluoro-4-((S)-1-(3-fluoro-3-(hydroxymethyl)azetidin-1-yl)-1-oxopropan-2-yl)phenyl)amino)-3-oxopropan-2-yl)-1-isopropyl-1H-pyrazole-5-carboxamide] was above 1000 nM; that for `CC(C)n1nccc1C(=O)N[C@H](C(=O)Nc1ccc([C@H](C)C(=O)NCCF)cc1F)C(C1CC1)C1CC1` [Compound 34, N-((S)-1,1-dicyclopropyl-3-((2-fluoro-4-((S)-1-((2-fluoroethyl)amino)-1-oxopropan-2-yl)phenyl)amino)-3-oxopropan-2-yl)-1-isopropyl-1H-pyrazole-5-carboxamide] was 100 to 1000 nM. Then `CC(C)n1nccc1C(=O)N[C@H](C(=O)Nc1ccc([C@H](C)C(=O)NCC(F)(F)CNC(=O)OC(C)(C)C)cc1F)C(C1CC1)C1CC1` [Compound 35, tert-butyl (3-((S)-2-(4-((S)-3,3-dicyclopropyl-2-(1-isopropyl-1H-pyrazole-5-carboxamido)propanamido)-3-fluorophenyl)propanamido)-2,2-difluoropropyl)carbamate], with above 1000 nM; and `CC(C)n1nccc1C(=O)N[C@H](C(=O)Nc1ccc([C@H](C)C(=O)NCc2ccccc2C(F)(F)F)cc1F)C(C1CC1)C1CC1` [Compound 36, N-((S)-1.1-dicyclopropyl-3-((2-fluoro-4-((S)-1-oxo-1-((2-(trifluoromethyl)benzyl)amino)propan-2-yl)phenyl)amino)-3-oxopropan-2-yl)-1-isopropyl-1H-pyrazole-5-carboxamide], with above 1000 nM.

`CC(C)n1nccc1C(=O)N[C@H](C(=O)Nc1ccc([C@H](C)C(=O)N2CC3(C2)CC(F)(F)C3)cc1F)C(C1CC1)C1CC1` [Compound 37]: the IC50 is above 1000 nM.

Take `CC(C)n1nccc1C(=O)N[C@H](C(=O)Nc1ccc([C@H](C)C(=O)N2C[C@H](F)[C@@H](F)C2)cc1F)C(C1CC1)C1CC1` [Compound 38, N-((S)-1,1-dicyclopropyl-3-((4-((S)-1-((3S,4S)-3,4-difluoropyrrolidin-1-yl)-1-oxopropan-2-yl)-2-fluorophenyl)amino)-3-oxopropan-2-yl)-1-isopropyl-1H-pyrazole-5-carboxamide]: the IC50 fell in the range of 100 to 1000 nM. As to `CC(C)n1nccc1C(=O)N[C@H](C(=O)Nc1ccc([C@H](C)C(=O)N2CCN(C(=O)OC(C)(C)C)CC2C(F)(F)F)cc1F)C(C1CC1)C1CC1` (stereo partly drawn) [Compound 39, tert-butyl 4-((S)-2-(4-((S)-3,3-dicyclopropyl-2-(1-isopropyl-1H-pyrazole-5-carboxamido)propanamido)-3-fluorophenyl)propanoyl)-3-(trifluoromethyl)piperazine-1-carboxylate], the IC50 is above 1000 nM.
